According to patent US11464750B2, “Anticancer agent and use thereof” (priority 2017, dated 2022):

Columns and labels:
Assay type in all cases: cell-based, human
[1] = test system: phosphorylated H2AX (γH2AX); test: Western blotting, phosphorylated H2AX, Panc-1 cells; conditions: 3 μM, 12, 24, 48 hours
Method: Specifically, JeKo-1 cells were cultured for 0 (control), 12, 24 and 48 hours in the presence of 0.5 μM of 3EZ,20Ac-ingenol. In addition, Panc-1 cells were cultured for 0 (control), 12, 24, and 48 hours in the presence of 3 μM of 3EZ,20Ac-ingenol.
Subsequently, phosphorylation of H2AX in the respective cells was detected using an anti-phosphorylated-H2AX antibody (Millipore). In addition, p21 protein was detected using an anti-p21 antibody (Cell Signaling Technology). Furthermore, as a loading control, actin protein was detected using an anti-actin antibody (Sigma).

[2] = test system: p-Akt (Ser^473); test: Western blotting, p-Akt, JeKo-1 cells; conditions: 0.5 μM
Method: (§1) Specifically, first, JeKo-1 cells were cultured for 0 (control), 12, 24, and 48 hours in the presence of 0.5 μM of 3EZ,20Ac-ingenol. In addition, Panc-1 cells were cultured for 0 (control), 12, 24, and 48 hours in the presence of 3 μM of 3EZ,20Ac-ingenol.
Subsequently, by Western blotting using an anti-Akt antibody (Cell Signaling Technology) and an anti-p-Akt (Ser^473) antibody (Cell Signaling Technology), abundances of total amounts of Akt protein and p-Akt in the entire cell fractions, nuclear fractions, and cytoplasm fractions of the respective cells were analyzed. Furthermore, as a loading control, actin protein was detected using an anti-actin antibody (Sigma).

[3] = test system: TKG0210 cells; test: Cell Death Detection ELISA, TKG0210; conditions: 0.5 μM, 72 hours
Method: (§2) The induction of apoptosis by 3EZ,20Ac-ingenol treatment was examined by detecting histone-binding DNA fragmentation in the cytoplasm using a Cell Death Detection ELISA kit (Roche Applied Science).
(§3) Specifically, BALL-1 cells, TKG0210 cells, and TKG0377 cells were inserted into tubes at 5×10^4 cells/well/200 μL, and incubated for 6, 12, 24, 48, and 72 hours in the presence of 3EZ,20Ac-ingenol at a final concentration of 0.5 μM. Subsequently, the respective cells were lysed in a lysis buffer. Subsequently, the supernatant of cell debris of the respective cells was collected and transferred to an ELISA plate, and an absorbance at a wavelength of 405 nm was measured to measure the induction of apoptosis.

[4] = test system: TKG0377 cells; test: Cell Death Detection ELISA, TKG0377; conditions: 0.5 μM, 72 hours
Method: as §2, §3

[5] = test system: PTEN protein; test: Western blotting, PTEN protein, Panc-1 cells; conditions: 3 μM
Method: as §1
Subsequently, abundances of PTEN protein in entire cell fractions, nuclear fractions, and cytoplasm fractions of the respective cells were analyzed by Western blotting using an anti-PTEN antibody (Santa Cruz). Furthermore, as a loading control, actin protein was detected using an anti-actin antibody (Sigma).

CCCCC/C=C\C=C\C(=O)O[C@H]1C(C)=C[C@]23C(=O)[C@@H](C=C(COC(C)=O)[C@@H](O)[C@]12O)[C@H]1[C@@H](C[C@H]3C)C1(C)C [3EZ,20Ac-ingenol, 3-O-(2′E,4′Z-decadienoyl)-20-O-acetylingenol]
phosphorylation of H2AX [1]: phosphorylation of H2AX was not detected | abundance of p-Akt ([2]; cytoplasm fraction, 12 to 48 hours): a decrease in abundance of p-Akt was clearly recognized | abundance of p-Akt ([2]; entire cell fraction): a slight decrease in abundance of p-Akt was observed | abundance of p-Akt ([2]; nuclear fraction): no change in an abundance of p-Akt was recognized | amount of fragmented DNA (apoptosis) [3]: almost no fragmented DNA was detected | amount of fragmented DNA (apoptosis) [4]: almost no fragmented DNA was detected | abundance of PTEN protein ([5]; cytoplasm fraction, 12 hours to 24 hours): an increase in abundance of PTEN protein in the cytoplasm fraction was observed | abundance of PTEN protein ([5]; cytoplasm fraction, 48 hours): a decrease in abundance of PTEN protein was observed | abundance of PTEN protein ([5]; entire cell fraction, 12 hours until 48 hours): an abundance of PTEN protein increased | abundance of PTEN protein ([5]; nuclear fraction, 12 hours to 24 hours): an increase in abundance of PTEN protein in the nuclear fraction was observed
